Assay: Stability study: determination of linezolid Form-II content in linezolid Form-I (polymorph status by XRD)

Polymorphic stability (formation of polymorphic impurity Form-II) (containing residual solvent(s), though complying with the regulatory norms): undergoes transformation into Form II
Time stable during stability study (different conditions of relative humidity (RH) and temperature (Table-1)): up to 12 months
SMILES: CC(=O)NC[C@H]1CN(c2ccc(N3CCOCC3)c(F)c2)C(=O)O1 [Linezolid Form-I, (S)—N-[[3-(3-fluoro-4-morpholinylphenyl)-2-oxo-5-oxazolidinyl]methyl]acetamide]
Polymorphic stability (formation of polymorphic impurity Form-II) (substantially free of solvent(s)): does not generate polymorphic impurity, Form-II
